In ChEMBL document CHEMBL6109067, “Isolation, synthesis and structure-activity relationships of gallotannin derivatives as cathepsin C inhibitor” (Bioorg Med Chem Lett, 2025):

Assays:
Dipeptidyl peptidase 1 = Dipeptidyl peptidase 1 (Homo sapiens, UniProt P53634); test: Inhibition of Cathepsin C (unknown origin)
Cathepsin K = target: T1, Cathepsin K (Homo sapiens, UniProt P43235); test: Inhibition of Cathepsin K (unknown origin)
T1 sequence (P43235 whole entry): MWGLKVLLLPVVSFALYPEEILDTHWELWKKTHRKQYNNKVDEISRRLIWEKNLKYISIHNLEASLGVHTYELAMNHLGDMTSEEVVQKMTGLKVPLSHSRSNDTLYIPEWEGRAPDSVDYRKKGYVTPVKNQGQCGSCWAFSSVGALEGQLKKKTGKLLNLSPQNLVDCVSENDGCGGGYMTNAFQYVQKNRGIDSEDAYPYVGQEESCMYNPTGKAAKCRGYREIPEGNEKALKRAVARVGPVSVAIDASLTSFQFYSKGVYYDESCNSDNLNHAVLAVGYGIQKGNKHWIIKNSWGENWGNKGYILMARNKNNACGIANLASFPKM

Cathepsin S = Cathepsin S (Homo sapiens, UniProt P25774); test: Inhibition of Cathepsin S (unknown origin)
Procathepsin L = Procathepsin L (Homo sapiens, UniProt P07711); test: Inhibition of Cathepsin L (unknown origin)
Sequence of Procathepsin L (P07711 whole entry): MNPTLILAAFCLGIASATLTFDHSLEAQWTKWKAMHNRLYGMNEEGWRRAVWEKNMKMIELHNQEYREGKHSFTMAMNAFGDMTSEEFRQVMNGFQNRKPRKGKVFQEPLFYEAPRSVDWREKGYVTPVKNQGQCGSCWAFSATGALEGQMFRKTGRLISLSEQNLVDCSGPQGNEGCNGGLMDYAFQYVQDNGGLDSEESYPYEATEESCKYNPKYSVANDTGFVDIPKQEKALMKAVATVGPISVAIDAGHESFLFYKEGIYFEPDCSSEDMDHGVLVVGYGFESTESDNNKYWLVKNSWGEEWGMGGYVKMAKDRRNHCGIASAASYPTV

Sequence of Dipeptidyl peptidase 1 (P53634 25-134 limits assumed): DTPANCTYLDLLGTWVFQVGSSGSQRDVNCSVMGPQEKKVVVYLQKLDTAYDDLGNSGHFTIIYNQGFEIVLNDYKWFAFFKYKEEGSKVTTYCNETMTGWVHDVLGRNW
Sequence of Dipeptidyl peptidase 1 (P53634 231-394 limits assumed): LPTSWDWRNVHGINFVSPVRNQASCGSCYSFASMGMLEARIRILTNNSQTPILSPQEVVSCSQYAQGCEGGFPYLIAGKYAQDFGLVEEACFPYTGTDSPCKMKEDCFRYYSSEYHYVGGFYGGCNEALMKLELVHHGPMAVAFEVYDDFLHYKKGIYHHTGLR
Sequence of Dipeptidyl peptidase 1 (P53634 395-463 limits assumed): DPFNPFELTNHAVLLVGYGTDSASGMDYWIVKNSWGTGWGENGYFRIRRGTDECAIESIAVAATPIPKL
Sequence of Cathepsin S (P25774 whole entry): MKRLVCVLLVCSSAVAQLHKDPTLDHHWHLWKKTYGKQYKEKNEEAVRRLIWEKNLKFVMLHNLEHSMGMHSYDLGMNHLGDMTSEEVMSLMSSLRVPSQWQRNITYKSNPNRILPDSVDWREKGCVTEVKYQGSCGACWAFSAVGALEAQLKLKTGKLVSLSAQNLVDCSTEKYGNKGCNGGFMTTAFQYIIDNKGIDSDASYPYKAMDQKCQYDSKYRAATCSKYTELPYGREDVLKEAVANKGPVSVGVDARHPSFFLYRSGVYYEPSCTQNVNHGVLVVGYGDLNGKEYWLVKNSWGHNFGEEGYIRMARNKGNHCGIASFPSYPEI

Structure (SMILES): O=C(OC[C@H]1O[C@H](OC(=O)c2cc(O)c(O)c(O)c2)[C@H](OC(=O)c2cc(O)c(O)c(O)c2)[C@@H](OC(=O)c2cc(O)c(O)c(O)c2)[C@H]1OC(=O)c1cc(O)c(O)c(O)c1)c1cc(O)c(O)c(O)c1
- IC50 (Dipeptidyl peptidase 1): 2520 nM

Structure (SMILES): O=C(OC[C@H]1O[C@H](OC(=O)c2cc(O)c(O)c(O)c2)[C@H](OC(=O)c2cc(O)c(O)c(O)c2)[C@@H](OC(=O)c2cc(O)c(O)c(O)c2)[C@@H]1OC(=O)c1cc(O)c(O)c(O)c1)c1cc(O)c(O)c(O)c1
- IC50 (Dipeptidyl peptidase 1): 1990 nM

Structure (SMILES): O=C(OC[C@H]1O[C@@H](OC(=O)c2cc(O)c(O)c(O)c2)[C@H](OC(=O)c2cc(O)c(O)c(O)c2)[C@@H](OC(=O)c2cc(O)c(O)c(O)c2)[C@H]1OC(=O)c1cc(O)c(O)c(O)c1)c1cc(O)c(O)c(O)c1
- IC50 (Dipeptidyl peptidase 1): 735 nM

Structure (SMILES): COc1cc(C(=O)O[C@@H]2O[C@H](CO)[C@@H](O)[C@H](OC(=O)c3cc(OC)c(OC)c(OC)c3)[C@H]2OC(=O)c2cc(OC)c(OC)c(OC)c2)cc(OC)c1OC
- IC50 (Dipeptidyl peptidase 1): > 10000 nM
- pIC50 (Dipeptidyl peptidase 1): < 5

Structure (SMILES): O=C(N[C@H]1[C@@H](OC(=O)c2cc(O)c(O)c(O)c2)O[C@H](COC(=O)c2cc(O)c(O)c(O)c2)[C@@H](O)[C@@H]1OC(=O)c1cc(O)c(O)c(O)c1)c1cc(O)c(O)c(O)c1
- IC50 (Dipeptidyl peptidase 1): > 10000 nM
- pIC50 (Dipeptidyl peptidase 1): < 5

Structure (SMILES): O=C(OC[C@H]1O[C@@H](OC(=O)c2cc(O)c(O)c(O)c2)[C@H](OC(=O)c2cc(O)c(O)c(O)c2)[C@@H](OC(=O)c2cc(O)c(O)c(O)c2)[C@@H]1F)c1cc(O)c(O)c(O)c1
- IC50 (Cathepsin K): > 50 µM
- IC50 (Cathepsin S): > 50 µM
- IC50 (Procathepsin L): 7.23 µM

Structure (SMILES): O=C(OC[C@H]1O[C@@H](OC(=O)c2cc(O)c(O)c(O)c2)[C@H](OC(=O)c2cc(O)c(O)c(O)c2)[C@@H](OC(=O)c2cc(O)c(O)c(O)c2)[C@@H]1O)c1cc(O)c(O)c(O)c1
- IC50 (Cathepsin K): > 50 µM
- IC50 (Cathepsin S): > 50 µM
- IC50 (Procathepsin L): > 50 µM

Structure (SMILES): O=C(OC[C@H]1O[C@@H](OC(=O)c2cc(O)c(O)c(O)c2)[C@H](OC(=O)c2cc(O)c(O)c(O)c2)[C@@H](OC(=O)c2cc(O)c(O)c(O)c2)[C@@H]1OC(=O)c1cc(O)c(O)c(O)c1)c1cc(O)c(O)c(O)c1 [PENTAGALLOYL GLUCOSE]
- IC50 (Dipeptidyl peptidase 1): 695 nM

Structure (SMILES): CC(C)C[C@H](NC(=O)[C@H]1O[C@@H]1C(=O)O)C(=O)NCCCCN=C(N)N [E-64]
- IC50 (Cathepsin K): 0.00117 µM
- IC50 (Cathepsin S): 0.00358 µM
- IC50 (Procathepsin L): 0.00749 µM
- IC50 (Dipeptidyl peptidase 1): 4450 nM
